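Grown in 96-well plates, cells were treated for 48 hours with each compound at five concentrations. Insufficient inhibition: endpoint recorded as highest concentration tested. GI50 = concentration required for 50% inhibition of growth.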 The source made the active and inactive calls. No stated cut-off is given here; in the data, active = GI50 up to about 1.1 µM and inactive = higher.
How the values were obtained:
Assay in all cases: growth of human tumour cells (NCI), 48 h
[1] = tested on: 786-0
[2] = tested on: A498
[3] = tested on: A549
[4] = tested on: ACHN
[5] = tested on: BT-549
[6] = tested on: CAKI-1
[7] = tested on: CCRF-CEM
[8] = tested on: COLO 205
[9] = tested on: DU-145
[10] = tested on: EKVX
[11] = tested on: HCC 2998
[12] = tested on: HCT-116
[13] = tested on: HCT-15
[14] = tested on: HL-60
[15] = tested on: HOP-62
[16] = tested on: HOP-92
[17] = tested on: HT-29
[18] = tested on: Hs-578T
[19] = tested on: K562
[20] = tested on: KM12
[21] = tested on: LOX IMVI
[22] = tested on: M14
[23] = tested on: MCF7
[24] = tested on: MDA-MB-231
[25] = tested on: MDA-MB-435
[26] = tested on: MDA-N
[27] = tested on: MOLT-4
[28] = tested on: Malme-3M
[29] = tested on: NCI-H226
[30] = tested on: NCI-H23
[31] = tested on: NCI-H460
[32] = tested on: NCI-H522
[33] = tested on: NCI/ADR-RES
[34] = tested on: OVCAR-3
[35] = tested on: OVCAR-4
[36] = tested on: OVCAR-5
[37] = tested on: OVCAR-8
[38] = tested on: PC-3
[39] = tested on: RPMI-8226
[40] = tested on: RXF 393
[41] = tested on: SF-268
[42] = tested on: SF-295
[43] = tested on: SF-539
[44] = tested on: SK-MEL-28
[45] = tested on: SK-MEL-2
[46] = tested on: SK-MEL-5
[47] = tested on: SK-OV-3
[48] = tested on: SN12C
[49] = tested on: SNB-19
[50] = tested on: SNB-75
[51] = tested on: SR
[52] = tested on: SW-620
[53] = tested on: T47D
[54] = tested on: TK-10
[55] = tested on: U-251
[56] = tested on: UACC-257
[57] = tested on: UACC-62
[58] = tested on: UO-31
[59] = tested on: IGROV-1

## c1ccc(CSc2nnc3c4ccccc4c4ccccc4c3n2)cc1
[1]
  GI50: 34.8 µM (inactive)
[2]
  GI50: > 64.1 µM (inactive)
[3]
  GI50: > 89.3 µM (inactive)
[4]
  GI50: 61 µM (inactive)
[5]
  GI50: 50 µM (inactive)
[6]
  GI50: 78.9 µM (inactive)
[7]
  GI50: 27.7 µM (inactive)
[8]
  GI50: > 100 µM (inactive)
[9]
  GI50: > 82.2 µM (inactive)
[10]
  GI50: 27.2 µM (inactive)
[11]
  GI50: 51.1 µM (inactive)
[12]
  GI50: > 82.4 µM (inactive)
[13]
  GI50: > 100 µM
[14]
  GI50: > 36.2 µM (inactive)
[15]
  GI50: 24.8 µM (inactive)
[16]
  GI50: 21.2 µM (inactive)
[17]
  GI50: > 100 µM (inactive)
[18]
  GI50: 36.2 µM (inactive)
[19]
  GI50: 14.8 µM (inactive)
[20]
  GI50: > 100 µM (inactive)
[21]
  GI50: 62.7 µM (inactive)
[22]
  GI50: > 100 µM (inactive)
[23]
  GI50: 29.1 µM (inactive)
[24]
  GI50: 35.2 µM (inactive)
[25]
  GI50: 58.1 µM (inactive)
[26]
  GI50: 56.1 µM (inactive)
[27]
  GI50: 39.1 µM (inactive)
[28]
  GI50: 86.1 µM (inactive)
[29]
  GI50: 45.6 µM (inactive)
[30]
  GI50: 48.2 µM (inactive)
[31]
  GI50: > 88.3 µM (inactive)
[32]
  GI50: 33.2 µM (inactive)
[33]
  GI50: 60.5 µM (inactive)
[34]
  GI50: 21.7 µM (inactive)
[35]
  GI50: 48.1 µM (inactive)
[36]
  GI50: > 100 µM (inactive)
[37]
  GI50: 35.5 µM (inactive)
[38]
  GI50: 64.9 µM (inactive)
[39]
  GI50: 48 µM (inactive)
[40]
  GI50: > 52.1 µM (inactive)
[41]
  GI50: 19.1 µM (inactive)
[42]
  GI50: 23.2 µM (inactive)
[43]
  GI50: 31.4 µM (inactive)
[44]
  GI50: > 100 µM (inactive)
[45]
  GI50: 36.6 µM (inactive)
[46]
  GI50: > 100 µM (inactive)
[47]
  GI50: 17.7 µM (inactive)
[48]
  GI50: > 93.8 µM (inactive)
[49]
  GI50: 33.2 µM (inactive)
[50]
  GI50: 8.73 µM (inactive)
[51]
  GI50: 30.2 µM (inactive)
[52]
  GI50: 38.2 µM (inactive)
[53]
  GI50: 34.1 µM (inactive)
[54]
  GI50: 26.9 µM (inactive)
[55]
  GI50: 33.3 µM (inactive)
[56]
  GI50: > 100 µM (inactive)
[57]
  GI50: 46 µM (inactive)
[58]
  GI50: > 57.7 µM (inactive)

## CN(C)c1ccc(Cc2cc3c(O)ccc(O)c3cc(Cc3ccc(N(C)C)cc3)c2=O)cc1
[1]
  GI50: 16 µM (inactive)
[2]
  GI50: 46.1 µM (inactive)
[3]
  GI50: 30.5 µM (inactive)
[4]
  GI50: 12.5 µM (inactive)
[5]
  GI50: 13.7 µM (inactive)
[6]
  GI50: 6.46 µM (inactive)
[7]
  GI50: 2.96 µM (inactive)
[8]
  GI50: 16.1 µM (inactive)
[9]
  GI50: 26.9 µM (inactive)
[10]
  GI50: 19 µM (inactive)
[11]
  GI50: 23 µM (inactive)
[12]
  GI50: 11.7 µM (inactive)
[13]
  GI50: 21.5 µM
[14]
  GI50: 3.04 µM (inactive)
[15]
  GI50: 45.7 µM (inactive)
[16]
  GI50: 3.08 µM (inactive)
[17]
  GI50: 19.2 µM (inactive)
[18]
  GI50: 44.3 µM (inactive)
[59]
  GI50: 16.1 µM (inactive)
[19]
  GI50: 2.96 µM (inactive)
[20]
  GI50: 18.6 µM (inactive)
[21]
  GI50: 17.7 µM (inactive)
[22]
  GI50: 17.5 µM (inactive)
[23]
  GI50: 17.3 µM (inactive)
[24]
  GI50: 20.1 µM (inactive)
[25]
  GI50: 15.1 µM (inactive)
[26]
  GI50: 18.8 µM (inactive)
[27]
  GI50: 2.92 µM (inactive)
[28]
  GI50: 20.3 µM (inactive)
[29]
  GI50: 24.7 µM (inactive)
[30]
  GI50: 22.4 µM (inactive)
[31]
  GI50: 37.4 µM (inactive)
[32]
  GI50: 3.73 µM (inactive)
[33]
  GI50: 27 µM (inactive)
[34]
  GI50: 14.3 µM (inactive)
[35]
  GI50: 18.1 µM (inactive)
[36]
  GI50: > 43.9 µM (inactive)
[37]
  GI50: 17.1 µM (inactive)
[38]
  GI50: 15.4 µM (inactive)
[39]
  GI50: 6.25 µM (inactive)
[40]
  GI50: 9.31 µM (inactive)
[41]
  GI50: 29.6 µM (inactive)
[42]
  GI50: 34.4 µM (inactive)
[43]
  GI50: 26.1 µM (inactive)
[44]
  GI50: 18.9 µM (inactive)
[45]
  GI50: 36.6 µM (inactive)
[46]
  GI50: 19.2 µM (inactive)
[47]
  GI50: > 100 µM (inactive)
[48]
  GI50: 28.2 µM (inactive)
[49]
  GI50: 29.4 µM (inactive)
[50]
  GI50: > 55.8 µM (inactive)
[51]
  GI50: 3.08 µM (inactive)
[52]
  GI50: 13.6 µM (inactive)
[53]
  GI50: 4.09 µM (inactive)
[54]
  GI50: 18.6 µM (inactive)
[55]
  GI50: 20 µM (inactive)
[56]
  GI50: 21.1 µM (inactive)
[57]
  GI50: 26 µM (inactive)
[58]
  GI50: 13.1 µM (inactive)

## COC(=O)c1ccc2n1C1CC3CC(CC2C3)C1
[1]
  GI50: > 100 µM (inactive)
[2]
  GI50: > 100 µM (inactive)
[3]
  GI50: > 100 µM (inactive)
[4]
  GI50: > 100 µM (inactive)
[5]
  GI50: > 100 µM (inactive)
[6]
  GI50: > 100 µM (inactive)
[7]
  GI50: > 100 µM (inactive)
[8]
  GI50: > 100 µM (inactive)
[9]
  GI50: > 100 µM (inactive)
[10]
  GI50: > 100 µM (inactive)
[11]
  GI50: 91.2 µM (inactive)
[12]
  GI50: 42.6 µM (inactive)
[13]
  GI50: > 100 µM
[14]
  GI50: 15.3 µM (inactive)
[15]
  GI50: > 100 µM (inactive)
[16]
  GI50: 24.8 µM (inactive)
[17]
  GI50: 31.5 µM (inactive)
[18]
  GI50: 16.2 µM (inactive)
[59]
  GI50: > 100 µM (inactive)
[19]
  GI50: 51.2 µM (inactive)
[20]
  GI50: > 100 µM (inactive)
[21]
  GI50: > 100 µM (inactive)
[22]
  GI50: > 100 µM (inactive)
[23]
  GI50: > 100 µM (inactive)
[24]
  GI50: > 100 µM (inactive)
[25]
  GI50: > 100 µM (inactive)
[26]
  GI50: > 100 µM (inactive)
[27]
  GI50: 57.5 µM (inactive)
[28]
  GI50: > 100 µM (inactive)
[29]
  GI50: > 100 µM (inactive)
[30]
  GI50: 90.8 µM (inactive)
[31]
  GI50: > 100 µM (inactive)
[32]
  GI50: > 100 µM (inactive)
[33]
  GI50: > 100 µM (inactive)
[34]
  GI50: > 100 µM (inactive)
[35]
  GI50: > 100 µM (inactive)
[36]
  GI50: > 100 µM (inactive)
[37]
  GI50: > 100 µM (inactive)
[38]
  GI50: 40 µM (inactive)
[39]
  GI50: 42.8 µM (inactive)
[40]
  GI50: 21.5 µM (inactive)
[41]
  GI50: > 100 µM (inactive)
[42]
  GI50: > 100 µM (inactive)
[43]
  GI50: > 100 µM (inactive)
[44]
  GI50: > 100 µM (inactive)
[45]
  GI50: 70.6 µM (inactive)
[46]
  GI50: 30.9 µM (inactive)
[47]
  GI50: > 100 µM (inactive)
[48]
  GI50: > 100 µM (inactive)
[49]
  GI50: > 100 µM (inactive)
[50]
  GI50: > 100 µM (inactive)
[51]
  GI50: 46.3 µM (inactive)
[52]
  GI50: > 100 µM (inactive)
[53]
  GI50: 53.6 µM (inactive)
[54]
  GI50: > 100 µM (inactive)
[55]
  GI50: > 100 µM (inactive)
[56]
  GI50: > 100 µM (inactive)
[57]
  GI50: 41.2 µM (inactive)
[58]
  GI50: > 100 µM (inactive)

Source: ChEMBL document CHEMBL1201862, “PubChem BioAssay data set” (2004)
